Results published in US20220381779A1, “METHODS FOR THE DIAGNOSIS OF BURULI ULCER” (INSERM (INSTITUT NATIONAL DE LA SANTÉ ET DE LA RECHERCHE …, priority 2019, published 2022).

Tested on: CD4+ T cells
Assay: Neutralizing activity assay: cytokine production by PMA/ionomycin-stimulated CD4+ T cells in contact with mycolactone
Assay type: cell-based, C57Bl/6 mice
Conditions: mycolactone 4 ng/mL, 6 h, compared to positive control (T cells only stimulated)
Description: FIG. 2: Neutralization of mycolactone by cutaneous immunoglobulin from FVB/N mice infected with M. ulcerans. CD4+ lymphocytes were stimulated with PMA/ionomycin. Mycolactone was used at a concentration of 4 ng/mL. Immunoglobulins purified from the skin of A) FVB/N mice or B) C57Bl/6 mice infected with M. ulcerans were used at a ratio of 10 immunoglobulin molecules per molecule of mycolactone. Left panel: IL-2 quantification, Right panel: IFNγ quantification. The data shown correspond to one experiment performed in triplicate (mean±SD).
CD4+ T cells were isolated from the spleens of C57Bl/6 mice by magnetic sorting (MACS technology kit 130-104-454), according to the manufacturer's instructions (Miltenyi Biotec). The purity of CD4+ T-cell preparations was determined by flow cytometry, with PE-conjugated anti-CD4 monoclonal antibody (eBioscience) and FITC-conjugated anti-CD3E monoclonal antibody (eBioscience). […] IL-2 and IFN-γ were quantified by ELISA (eBioscience), according to the manufacturer's instructions (Mouse IL-2 Ready-SET-Go: 88-7024 and Mouse IFN-γ Ready-SET-Go: 88-7314 respectively).
In this context, we assessed whether these antibodies could not only recognized but also neutralized mycolactone, by evaluating cytokines production by T lymphocytes as an indicator of the immunomodulatory property of mycolactone. […]

CC(=C\C=C\C(C)=C\[C@H](O)[C@@H](O)C[C@H](C)O)/C=C(C)/C=C/C(=O)O[C@H]1CCCC(=O)O[C@@H]([C@@H](C)C/C(C)=C/[C@@H](C)[C@H](O)C[C@@H](C)O)C/C=C(\C)C[C@@H]1C [mycolactone, [(6S,7S,9E,12R)-12-[(E,2S,6R,7R,9R)-7,9-dihydroxy-4,6-dimethyldec-4-en-2-yl]-7,9-dimethyl-2-oxo-1-oxacyclododec-9-en-6-yl] (2E,4E,6E,8E,10E,12S,13S,15S)-12,13,15-trihydroxy-4,6,10-trimethylhexadeca-2,4,6,8,10-pentaenoate]
IFNγ production by T cells: greatly decreased | IL-2 production by T cells: greatly decreased
